# Results reported in US20260060969A1, “METHODS FOR THE TREATMENT OF LYMPHOPROLIFERATIVE DISORDERS” (INSTITUT NATIONAL DE LA SANTÉ ET DE LA RECHERCHE MÉDICALE, priority 2022, published 2026).
# Experiments:
# [1] = test system: MRL/MpJ-Faslpr/J mice (MRL-lpr); experiment: Alpelisib in MRL/MpJ-Faslpr/J (MRL-lpr) mice, model of lymphoproliferative disorder (spleen and lymph node size, flow cytometry); assay type: in vivo, mouse; conditions: 4 weeks
# From the text: (§1) They then decided to explore the relevance of alpelisib in MRL/MpJ-Faslpr/J mice (referred here as MRL-lpr), another mouse model of lymphoproliferative disorder. These mice with homozygous Fas mutation usually develop severe lymphadenoproliferation. Female mice die at an average of 18-20 weeks old. They first randomly assigned to either vehicle or alpelisib MRL-lpr female mice at 8 weeks old, before they fully develop diseases.
# (§2) FIG. 1: Alpelisib improves lymphoproliferative mouse models. A. Spleen to body weight ratio at the time of sacrifice (4 weeks following treatment either with vehicle or alpelisib) (n=5-15 mice per group). B-F. Percentage of spleen cell population determined by flow cytometry analysis in NZBWF1/J mice treated with either vehicle or alpelisib. Spleen to body weight ratio of MRL-lpr mice treated either with vehicle or alpelisib for 4 weeks (n=14 mice per group). Percentage of peripheral blood monuclear cell (PBMC), bone marrow, spleen and lymph nodes cell population determined by flow cytometry analysis in MRL-lpr mice treated with either vehicle or alpelisib for 4 weeks (n=8-9 mice per group). CD4, CD8, B220, Mac1, Gr1 are used as lineage markers.
# FIG. 2: Alpelisib modifies mononuclear cell population in MRL-lpr mice. Flow cytometry analysis of bone marrow, spleen, lymph nodes, and PBMC in MRL-lpr mice treated either with vehicle or alpelisib for 4 weeks (n=8-9 mice per group). CD4, CD8, B220, Mac1, Gr1 are used as lineage markers.
# as §1, with “We” for “They”
# PROS patients = PROS patients in poor condition; earlier work told in the background; cited from earlier work
# NZBWF1/J mice = experiment: Alpelisib in NZBWF1/J mice, model of lymphoproliferative disorders (spleen size, splenocyte flow cytometry); assay type: in vivo, mouse; conditions: female NZBWF1/J mice aged 24 weeks, 4 weeks treatment, vs vehicle
# Description: (§3) Inventors have first investigated the impact of PIK3CA inhibition in NZBWF1/J mice a model of lymphoproliferative disorders. They randomly assigned 30 females aged of 24 weeks to receive either vehicle (n=15) or alpelisib (n=15) during 4 weeks. At the end of the treatment period, mice were sacrificed and flow cytometry was performed in splenocytes.
# as §2
# as §3, with “We” for “Inventors have”, “We” for “They”
# [2] = MRL-lpr mice, PBMC, lymph nodes and spleen
# [3] = female MRL-lpr mice treated from 8 weeks old, at sacrifice, vs vehicle
structure (smiles),measurement,setting,value
Cc1nc(NC(=O)N2CCC[C@H]2C(N)=O)sc1-c1ccnc(C(C)(C)C(F)(F)F)c1 [alpelisib],B cells (flow cytometry),[1]; [2],correction
same,T cells (flow cytometry),[1]; [2],correction
same,other immune cells (flow cytometry),[1]; [2],correction
same,lymph node size,[1]; [3],reduction
same,spleen size,[1]; [3],reduction
same,"clinical, biological and radiological outcome",PROS patients,"clinical, biological and radiological improvements"
same,"spleen size (spleen to body weight ratio, FIG. 1A)",NZBWF1/J mice; at sacrifice,significantly reduced
same,B cells (flow cytometry in splenocytes),NZBWF1/J mice; spleen,significantly reduced
same,CD8 cells count (flow cytometry in splenocytes),NZBWF1/J mice; spleen,corrected
